In the NIST ThermoML archive (doi:10.1021/je300388b):

Assay: xn = mol fraction of the nth substance listed
Conditions: Liquid

CCCCCCCCCC [decane] + O=C=O
Conditions | mass density [kg/m3]
303.04 K, 8020 kPa, x2 = 0.869 | 798.45
303.15 K, 9990 kPa, x2 = 0.4698 | 756.27
303.15 K, 11990 kPa, x2 = 0.4698 | 758.43
303.15 K, 14000 kPa, x2 = 0.4698 | 760.53
303.15 K, 15980 kPa, x2 = 0.4698 | 762.54
303.15 K, 17990 kPa, x2 = 0.4698 | 764.51
303.15 K, 19010 kPa, x2 = 0.2361 | 748.64
303.15 K, 19010 kPa, x2 = 0.4698 | 765.49
303.16 K, 7980 kPa, x2 = 0.2361 | 740.1
303.16 K, 8020 kPa, x2 = 0.4698 | 754.05
303.16 K, 9970 kPa, x2 = 0.2361 | 741.73
303.16 K, 12020 kPa, x2 = 0.2361 | 743.35
303.16 K, 16020 kPa, x2 = 0.2361 | 746.43
303.17 K, 14020 kPa, x2 = 0.2361 | 744.91
303.17 K, 18020 kPa, x2 = 0.2361 | 747.92
303.31 K, 10030 kPa, x2 = 0.869 | 807.43
303.31 K, 14030 kPa, x2 = 0.869 | 824.12
303.31 K, 18050 kPa, x2 = 0.869 | 837.96
303.36 K, 12020 kPa, x2 = 0.869 | 816.02
303.37 K, 16020 kPa, x2 = 0.869 | 831.09
313 K, 7980 kPa, x2 = 0.71 | 763.24
313 K, 9940 kPa, x2 = 0.71 | 767.44
313 K, 13970 kPa, x2 = 0.71 | 775.3
313.01 K, 11690 kPa, x2 = 0.71 | 770.91
313.01 K, 18020 kPa, x2 = 0.71 | 782.43
313.03 K, 16020 kPa, x2 = 0.71 | 778.96
313.06 K, 13970 kPa, x2 = 0.4698 | 750.5
313.07 K, 15990 kPa, x2 = 0.4698 | 752.76
313.09 K, 17990 kPa, x2 = 0.4698 | 754.91
313.09 K, 19000 kPa, x2 = 0.4698 | 755.97
313.1 K, 8010 kPa, x2 = 0.4698 | 743.23
313.11 K, 11990 kPa, x2 = 0.4698 | 748.15
313.12 K, 10010 kPa, x2 = 0.4698 | 745.74
313.13 K, 16010 kPa, x2 = 0.2361 | 738.82
313.13 K, 18010 kPa, x2 = 0.2361 | 740.41
313.14 K, 10010 kPa, x2 = 0.2361 | 733.81
313.14 K, 19020 kPa, x2 = 0.2361 | 741.18
313.15 K, 7990 kPa, x2 = 0.2361 | 732.05
313.15 K, 14010 kPa, x2 = 0.2361 | 737.19
313.16 K, 12000 kPa, x2 = 0.2361 | 735.5
313.23 K, 18020 kPa, x2 = 0.869 | 812.48
313.27 K, 10000 kPa, x2 = 0.869 | 776.26
313.31 K, 14000 kPa, x2 = 0.869 | 796.68
313.33 K, 12000 kPa, x2 = 0.869 | 787.12
313.36 K, 7990 kPa, x2 = 0.869 | 762.46
313.37 K, 16040 kPa, x2 = 0.869 | 804.9
323.02 K, 8000 kPa, x2 = 0.71 | 747.45
323.02 K, 18230 kPa, x2 = 0.71 | 769.63
323.09 K, 14030 kPa, x2 = 0.71 | 761.43
323.11 K, 16040 kPa, x2 = 0.71 | 765.46
323.12 K, 9940 kPa, x2 = 0.71 | 752.26
323.13 K, 18030 kPa, x2 = 0.2361 | 732.88
323.15 K, 8010 kPa, x2 = 0.4698 | 732.04
323.15 K, 9980 kPa, x2 = 0.4698 | 734.86
323.15 K, 11970 kPa, x2 = 0.71 | 756.86
323.15 K, 12030 kPa, x2 = 0.2361 | 727.66
323.15 K, 16020 kPa, x2 = 0.2361 | 731.17
323.15 K, 18000 kPa, x2 = 0.4698 | 745.11
323.15 K, 19000 kPa, x2 = 0.4698 | 746.27
323.15 K, 19020 kPa, x2 = 0.2361 | 733.69
323.16 K, 14030 kPa, x2 = 0.2361 | 729.45
323.17 K, 12020 kPa, x2 = 0.4698 | 737.61
323.17 K, 15980 kPa, x2 = 0.4698 | 742.66
323.18 K, 8030 kPa, x2 = 0.2361 | 723.85
323.18 K, 9970 kPa, x2 = 0.2361 | 725.74
323.19 K, 13990 kPa, x2 = 0.4698 | 740.16
323.29 K, 16020 kPa, x2 = 0.869 | 778.27
323.3 K, 10010 kPa, x2 = 0.869 | 740.74
323.3 K, 18080 kPa, x2 = 0.869 | 787.62
